Experiments:
[1] = system: lipolysis; assay: In vivo lipolysis (serum glycerol) in rats; set-up: species or system rat; conditions: for lowering of serum glycerol levels: at 60 min
Procedure: Sprague Dawley rats (200-250 g) were fasted overnight. A blood sample was taken from the tail vein 10 sec before the subcutaneous injection of the drug in vehicle (10% DMSO in saline). Additional blood samples were taken from the tail vein at 30, 60 and 90 min post-injection and were kept on ice and centrifuged (1000 Xg) within one-half hour. A perchloric acid extract (3%) of plasma was neutralized with potassium hydroxide, 3-[N-morpholino]propanesulfonic acid, and then assayed for glycerol as described in Eggstein, et al., Methods of Enzymatic Analysis (H. U. Bermeyer ed., 1974), pp. 1825-1831.

[2] = system: synaptic potentials (fEPSPs) in CA1 region of hippocampal slices; assay: Inhibition of synaptic potentials (fEPSPs) in hippocampal slices (species not specified for this result); set-up: species or system adult rats and gerbils
Procedure: Hippocampal slices were prepared from adult rats (200-300 g) and gerbils as described in Lee et al., Electrophysiology of Isolated Mammalian CNS Preparation (G. A. Kerkut and H. V. Wheat, eds. 1981), pp. 189-211. Field excitatory postsynaptic potentials (fEPSPs) were recorded in the stratum radiatum of the CA1 region in response to stimulation of Schaffer collateral/commisural afferents. Slices were superfused continuously with artificial cerebrospinal fluid (ACSF; described in Lee et al., and fEPSPs were sampled every 15 seconds.
The amplitude of fEPSPs responses was measured on-line and plotted over the time course of each experiment. The magnitude of the inhibitory effect of a compound on fEPSP amplitude was expressed as the percentage inhibition, according to the formula: Percentage inhibition=[(Amplitude in ACSF only--Amplitude in drug)[…]Amplitude in ACSF only]×100.

[3] = biological target: T1, A1 adenosine receptors (Rattus norvegicus, UniProt P25099); assay: Inhibition of [3H]N6-phenylisopropyladenosine binding to A1 adenosine receptors in rat cerebral cortex membranes
T1 construct: Rat cerebral cortical membranes and striatal membranes were prepared; from tissue; host or cells: rat cerebral cortical membranes
T1 sequence (P25099 1-326): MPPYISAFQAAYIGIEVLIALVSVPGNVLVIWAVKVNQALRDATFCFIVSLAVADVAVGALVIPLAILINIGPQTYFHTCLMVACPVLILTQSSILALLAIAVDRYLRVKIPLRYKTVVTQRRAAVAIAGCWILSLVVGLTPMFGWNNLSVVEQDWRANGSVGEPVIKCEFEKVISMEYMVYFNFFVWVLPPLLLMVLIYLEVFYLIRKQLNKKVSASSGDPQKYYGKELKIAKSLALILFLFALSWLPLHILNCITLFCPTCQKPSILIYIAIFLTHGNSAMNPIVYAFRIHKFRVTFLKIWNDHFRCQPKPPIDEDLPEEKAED
Procedure: Bound and free radioligand were separated by addition of 4 mL of a solution containing 50 mM Tris hydrochloride, at pH 7.4 at 5° C., followed by vacuum filtration using a Brandel Cell Harvester (Brandel, Gaithersburg, Md.) and a Whatman GF/B glass fiber filter with additional washes totaling 12 mL of buffer.
(§1) At least seven different concentrations spanning four orders of magnitude, adjusted appropriately for the IC50 of each compound, were used.

[4] = Sedation in rats after i.p. injection; format: in vivo, rat; conditions: 25 and 50 mg/kg i.p., during one hour
[5] = biological target: A2 adenosine receptors (Rattus norvegicus, UniProt P30543); assay: Inhibition of [3H]CGS 21680 binding to A2 receptors in rat striatal membranes; set-up: Rat cerebral cortical membranes and striatal membranes were prepared; from tissue; host or cells: rat striatal membranes; conditions: rat striatum
Procedure: Membranes (about 80 μg protein, 5 mg wet weight, per tube) were incubated for one hour at 25° C. in a total volume of 1 mL. […] Filtration was carried out using a Brandel Cell Harvester, as above.
as §1

[6] = system: lipolysis; assay: In vivo lipolysis (serum glycerol) in rats; set-up: species or system rat; conditions: post i.p. injection
[7] = Rectal temperature in rats; format: in vivo, rat; conditions: Sprague Dawley rats, vehicle caused small rise (approximately 1° C.)
Procedure: Rectal temperature was then recorded.

A2 adenosine receptors, sequence (P30543 whole entry): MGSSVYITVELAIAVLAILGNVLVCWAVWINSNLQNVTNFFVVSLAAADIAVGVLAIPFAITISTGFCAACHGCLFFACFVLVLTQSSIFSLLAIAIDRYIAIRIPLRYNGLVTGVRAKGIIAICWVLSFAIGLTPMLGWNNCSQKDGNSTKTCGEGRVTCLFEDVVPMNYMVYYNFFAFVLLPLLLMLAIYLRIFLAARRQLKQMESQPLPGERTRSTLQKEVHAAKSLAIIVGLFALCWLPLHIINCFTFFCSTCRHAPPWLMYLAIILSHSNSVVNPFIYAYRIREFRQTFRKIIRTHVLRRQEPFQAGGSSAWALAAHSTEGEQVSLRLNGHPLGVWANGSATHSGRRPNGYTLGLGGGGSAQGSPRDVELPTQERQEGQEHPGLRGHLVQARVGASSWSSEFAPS

O=S(=O)(O)c1ccc(CCCNc2ncnc3c2ncn3[C@@H]2O[C@H](CO)[C@@H](O)[C@H]2O)cc1 [3-p-sulfophenylpropyl, N^6-3-p-sulfophenylpropyladenosine]
lowering of serum glycerol levels ([1]; 0.5 mg/kg): 30%
lowering of serum glycerol levels ([1]; 1.0 mg/kg): 34%
effect on serum glycerol levels (inhibition of lipolysis, in words) ([1]; doses of 0.1-1.0 mmol/kg): lower serum glycerol levels
onset of action ([2]; compared with adenosine and CPA): slightly slower onset of action in this assay than adenosine itself, but a faster onset of action than CPA
IC50 ([2]; hippocampal slices): 1.7 µM
agonist action ([2]; hippocampal slices): clearly acts as an agonist
Ki ([3]; rat brain, vs 1.0 nM [3H]PIA, read-out: A1-Receptor Ki): 0.61 ± 0.039 µM
affinity for the A1 cortical receptors (in words) ([3]; rat cerebral cortex): demonstrated affinity
sedation [4]: moderate sedation
affinity for the A2 striatal receptors (in words) [5]: demonstrated affinity
time of maximum effect on serum glycerol [6]: 30 to 60 min
rectal temperature ([7]; i.c.v.): caused rectal temperature depression
rectal temperature ([7]; i.p.): caused rectal temperature depression
